Here are results for one compound from publication PMC9166630, “SAR Probing of KX2-391 Provided Analogues With Juxtaposed Activity Profile Against Major Oncogenic Kinases” (Frontiers in Oncology, 2022).

One test deals with Blk. Kind of test: PamChip tyrosine kinase microarray, Blk. It is filed as biochemical, human. The note with it: 4e 0.1 µM, HL60 lysate. Here is the method: (§1) The changes in kinase activities induced by treatment with 4e were monitored within the HL60 cell lines using PamGene’s (Hertogenbosch, Netherlands) PamChip® peptide microarray profiler, which quantifies the activities of 144 tyrosine kinases (YK) ([29], [30]) (Figure 7). Results are provided as a log fold change (LFC) heatmap and Mean Kinase Statistic. From the LFC it is apparent that compound 4e, at a concentration of 0.1 µM, induced sizable changes to the activity of several kinases within the cell signaling YK profile (Figure 7A).
(§2) An Upstream Kinase tool was used to generate a putative list of kinases responsible for phosphorylating the phospho-sites on the PamChip (Figure 7B) ([31]). It is an interpretation and is highly dependent on the contents of the underlying phosphorylation databases. A Kinase Score was used for ranking kinases based on their significance and specificity in terms of the set of peptides used for the corresponding kinase. Kinase Statistics indicates the overall change of the peptide set that represents the kinase. Kinase statistics value <0 indicates lower kinase activity in the compound spiked lysate and vice versa ([32], [33]). Table 5 lists the 20 most changed kinases within treated HL60 cell lysates by 0.1 μM 4e, ranked according to their Kinase Score.
The two multiple-kinase tests (PamChip and Phosphokinase Profiler) provided strong evidence of very minor involvement of Src in the cellular activities of 4e. However, the question must be raised about the effect of the 4e on other SRC family kinase (SFK). To address this point, we must highlight that both R&D phosphokinase profiler and PamChip feature Yes, Fgr, Lyn, Lck and Src while Fyn, Hck, Blk and Frk activities are tested in the PamChip only. The signals of SFKs in the R&D Phosphokinase Profiler were too weak to detect in both untreated (control) and 4e-treated HL60 cells. In PamChip assay, most of SFK’s were not ranked in the top 20 affected kinases (Table 5). In addition, their Specificity Score were very low (Table 6) indicating their marginal importance to the cell killing activities of 4e. Fgr kinase which ranked 7th in the list (Table 5) was the only SFK member that seems to be affected by the compound, albeit with low Specificity Score (1.03).
The compound 4e was spiked into HL60 cell lysate at different concentrations (0.001, 0.01, 0.1, 1, 10 and 50 μM). In addition, DMSO was also spiked in HL60 lysate at low concentration (2% v/v) as control. Samples were profiled on PamGene’s Tyrosine Kinase (PTK) arrays in technical replicates, covering a total of 196 phosphorylation sites. Frozen HL60 cultured cell pellet was sent to PamGene. […] Protein concentration was measured using standard Bradford assay as per PamGene SOPs. […]

For test [1], the system named is N87 (stomach) cancer cells. The test can be described thus: SRB cytotoxicity assay, N87. It is filed as cell-based. The note with it: Homo sapiens, 72 h, maximum tested concentration 50 µM, read-out: IC50 ± SEM, N87. Here is the method: MCF7 (breast) or N87 (stomach) cancer cells were grown in Roswell Park Memorial Institute-1640 (RPMI-1640) medium (Thermo Fisher Scientific, Inc; Waltham, MA, USA), supplemented with 10% heat inactivated fetal bovine serum (FBS), 50 units/mL of penicillin and […] of streptomycin and maintained at 37°C in a humidified atmosphere containing 5% CO2. The cells were maintained as “monolayer culture” by serial subculturing.
Cytotoxicity was determined using Sulforhodamine B (SRB) method as previously described by Skehan et al. ([66]). Exponentially growing MCF7 and N87 cells were collected using 0.25% Trypsin-EDTA and were then seeded in 96-well plates at a density of 1000-2000 cells/well in 10% FBS and penicillin/streptomycin supplemented RPMI-1640 medium. After 24 h, cells were treated with different concentrations of test compounds and incubated for 72 h at 37°C in a humidified atmosphere containing 5% CO2. Next, the cells were fixed by adding trichloroacetic acid (TCA, 10% final conc. in wells) directly to the wells and incubated for 1 h at 4°C, then cells were washed with distilled water 5 times to remove excess TCA, media, serum proteins, and metabolites, followed by air drying. After that, the fixed cells were stained with 0.4% SRB dissolved in 1% acetic acid for 10 min at room temperature, and excess stain was removed by quickly rinsing with 1% acetic acid. The residual acetic acid was removed completely by air drying the plates for 24 h, and the dye was solubilized with Tris buffer (pH= 7.4, 10 mM) for 5 min on a shaker at 1600 rpm. The optical density (OD) of each well was measured spectrophotometrically at 564 nm with an ELISA microplate reader (ChroMate-4300, FL, USA). The IC50 values (concentration of drug resulting in 50% reduction in cell survival) were calculated according to the equation for Boltzman sigmoidal concentration–response curve using the nonlinear regression fitting models (Graph Pad, Prism Version 5).

The next test concerns TXK. The test can be described thus: PamChip tyrosine kinase microarray, TXK. It is filed as biochemical, human. Conditions: 4e 0.1 µM, HL60 lysate. How it is done:
as §1, §2
(§3) The compound 4e was spiked into HL60 cell lysate at different concentrations (0.001, 0.01, 0.1, 1, 10 and 50 μM). In addition, DMSO was also spiked in HL60 lysate at low concentration (2% v/v) as control. Samples were profiled on PamGene’s Tyrosine Kinase (PTK) arrays in technical replicates, covering a total of 196 phosphorylation sites. Frozen HL60 cultured cell pellet was sent to PamGene. At PamGene, cells were lysed using a lysis buffer and proteases inhibitors cocktail. Protein concentration was measured using standard Bradford assay as per PamGene SOPs. These lysates were further used for generating the PTK activity profiles. For spiking, 4e was received as powder form and dissolved in DMSO at PamGene facility followed by storing at -20°C in small aliquots. PamGene used its in-house bioinformatics toolbox in combination with other methods to generate hypotheses of signaling pathways.

For the next test, the target named is T1, Fgr (Homo sapiens, UniProt P09769).
T1 construct: endogenous in cells; host or cells: HL60 lysate
T1 sequence (P09769 whole entry): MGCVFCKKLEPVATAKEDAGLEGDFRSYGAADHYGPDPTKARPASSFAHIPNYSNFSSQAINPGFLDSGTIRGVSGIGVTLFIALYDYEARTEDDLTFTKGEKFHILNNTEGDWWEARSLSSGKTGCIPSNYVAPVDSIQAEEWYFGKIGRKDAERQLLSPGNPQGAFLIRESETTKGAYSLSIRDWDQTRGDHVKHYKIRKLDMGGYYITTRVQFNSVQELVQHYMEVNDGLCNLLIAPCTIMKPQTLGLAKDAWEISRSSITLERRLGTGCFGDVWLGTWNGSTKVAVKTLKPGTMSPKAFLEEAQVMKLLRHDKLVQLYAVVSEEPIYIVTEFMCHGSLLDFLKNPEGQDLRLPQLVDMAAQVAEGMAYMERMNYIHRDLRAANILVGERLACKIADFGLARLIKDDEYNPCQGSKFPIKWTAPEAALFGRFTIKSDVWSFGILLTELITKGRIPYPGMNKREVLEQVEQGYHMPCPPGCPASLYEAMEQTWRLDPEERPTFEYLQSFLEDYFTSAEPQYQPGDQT
Kind of test: PamChip tyrosine kinase microarray, Fgr. The format is biochemical. The note with it: 4e 0.1 µM. How it is done:
as §1, §2, §3

Molecules are shown by their SMILES. Where “and” joins values, the source holds several entries; their conditions need not be identical. Equal values may be shown once.

For the compound `O=C(Cc1ccc(NC(=O)c2cccc(Cl)c2)cc1)NCc1ccccc1` [Compound 4e, N-(4-(2-(benzylamino)-2-oxoethyl)phenyl)-3-chlorobenzamide], in the test on Blk, the “Mean Final Score” value turned out to be 0.7362, the “Mean Kinase Statistic” value was -0.3552, the “Mean Significance Score” value stood at 0.6625 and the “Mean Specificity Score” value was found to be 0.0736. The IC50 in test [1] was 5.28 ± 0.91 µM. In the test on TXK, the “Mean Final Score” value worked out at 1.9145, the “Mean Kinase Statistic” value is given as -0.5527, the “Mean Significance Score” value was 1.2373 and the “Mean Specificity Score” value amounted to 0.6772. On Fgr (HL60), the “PamGene Ranking” value was found to be 7. Also, on Fgr (HL60 lysate), the “Mean Final Score” value amounted to 2.2023; the “Mean Kinase Statistic” value is on record as -0.7971; the “Mean Significance Score” value stood at 1.1688; the “Mean Specificity Score” value is 1.03 and 1.0335.
